Test results as given in patent US20220220480A1, “METHODS AND COMPOSITIONS FOR TREATMENT OF NLRP3 IN[…] IL-1BETA DEPENDENT DISORDERS” (priority 2019, published 2022).

Tests used:
[1] = Imiquimod induced psoriasis-like phenotype, adapted PASI score; assay type: in vivo, C57BL/6J mice; conditions: day 4 of imiquimod administration, AZ13711265 10 mg/kg intraperitoneally daily; for Erythema score (PASI) / Scaling score (PASI): scale 0-4
Experimental: FIG. 5: 8 weeks old C57BL/6J mice were shaved two days before the experiment. One day before administration of imiquimod and daily for 5 days, mice were intraperitoneally injected with vehicle (60% PEG, 40% PBS) or with the Pak1 inhibitor AZ13711265 (10 mg/kg). Mice were treated in the back daily for 4 days either with Vaseline or with Aldara cream corresponding to 3,125 mg of imiquimod (IMQ) to induce psoriasis-like phenotype. The erythema and scaling was analyzed by an adapted version of the clinical PASI score, 0: none; 1: slight; 2: moderated; 3: strong; 4: very strong phenotype. The total score is the cumulative score of scaling and erythema. Results are expressed as mean±SEM. p-value: *<0.01, ***<0.001, compared to control
Futhermore, we investigated the effect of Pak1 kinase inhibitor on a psoriasis model. Dermal application of imiquimod induced a psoriasis-like phenotype including scaling and erythema that are scored using the PASI score.

IL-1β maturation = IL-1β maturation by immunoblot in BMDMs treated with LPS and CNF1; assay type: cell-based, mouse; conditions: 5 μM IPA-3 or 1 μM FRAX597 45 min before CNF1 500 ng/mL and LPS 100 ng/mL 8 h (FIG. 2c)
Experimental: (a-b) BMDMs isolated from BALB/c mice were transfected for 72 h with siRNA targeting either NLRP3, Nek7, Pak1, Pak2 as indicated and non-targeting siRNA were used as control. […] (c) Supernatants and cell lysates were analyzed by immunoblot. […] Active Caspase 1 was stained with FAM-FLICA, analyzed by microscopy and FAM-FLICA positive cells were counted. (n=1000 per conditions). p-value ****<0.0001, compared to the CNF1-treated BMDMs (e) HEK293T cells were transfected with plasmids encoding NLRP3 inflammasome component (myc-NLRP3, ASC-GFP, mCaspase-1) together with Flag-Rac2Q61E (Q61E), myc-Pak1 wild type (WT) or myc-Pak1T423E (T423E) and caspase-1 cleavage was analyzed by immunoblot.
HEK 293T cells were obtained from ATCC (CRL-3216) and maintained according to ATCC instructions. Bone-marrow derived macrophages (BMDMs) were extracted from femurs of 6-10 weeks-old BALB/c, C57BL/6J or C57BL/6J KO mice as indicated in the figure legends and were cultured in RPMI GlutaMax medium (Life Technologies) supplemented with 100 ng/mL M-CSF (Premium grade, Miltenyi Biotec), 10% heat-inactivated FBS (Biowest) and 50 μg/mL gentamycin (Life Technologies) at 37° C. in an atmosphere containing 5% CO2. The cells were seeded at a concentration of 10^6 cells per well in a 6-well plate. After 6 days of differentiation, BMDMs were used for experiments. […]

Caspase-1 activation = test: FAM-FLICA Caspase-1 activation assay by microscopy in BMDMs; assay type: cell-based, mouse; conditions: for Block of CNF1-triggered Caspase-1 activity/activation measured using FAM-FLICA: BMDMs, inhibitor 45 min before CNF1 500 ng/mL, 1 μM MCC950, 5 μM IPA-3, 1 μM FRAX597 (FIG. 1b, 2d)
Experimental: Bone-marrow derived macrophages (BMDMs) were extracted from femurs of 6-10 weeks-old BALB/c, C57BL/6J or C57BL/6J KO mice as indicated in the figure legends and were cultured in RPMI GlutaMax medium (Life Technologies) supplemented with 100 ng/mL M-CSF (Premium grade, Miltenyi Biotec), 10% heat-inactivated FBS (Biowest) and 50 μg/mL gentamycin (Life Technologies) at 37° C. in an atmosphere containing 5% CO2. The cells were seeded at a concentration of 10^6 cells per well in a 6-well plate. After 6 days of differentiation, BMDMs were used for experiments. NLRP3, NLRC4, PYRIN, and GSDMD knock-out BMDMs were a kind gift from M. Lamkanfi. […] SiRNAs were transfected in HEK 293T cells or BMDMs during 72 h using Lipofectamine RNAiMAX Reagent (ThermoFisher Scientific) according to the manufacturer instructions. Cells were transfected as indicated in figure legends with siRNAs targeting NLRP3 (L-053455-00, Dharmacon), Rac1 (L-041170-00, Dharmacon), Rac2 (L-041171-01, Dharmacon), Nek7 (J-063266-09, Dharmacon), PAK1 (L-048101-00, Dharmacon), PAK2 (L-040615-00, Dharmacon) or non-targeting control siRNA (D-001810-10, Dharmacon). […] Cells pre-treated with ultrapure LPS for 6 h followed by the addition of Nigericin 504 (Invivogen) or ATP 5 mM (Invivogen) for 30 minutes were used as positive control of NLRP3 inflammasome activation.
Caspase 1 activation was detected using the fluorescent probe FAM-FLICA (ImmunoChemistry Technologies) after 6 h of treatment, according to the manufacturer instructions. After labelling, cells were fixed in 4% paraformaldehyde for 15 min and blocked with 2% TBS-BSA. Cells were incubated with mouse anti-NLRP3 antibody (clone Cryo-2, Adipogen) for 1 hour followed by incubation with secondary antibody TexasRed anti-mouse IgG (TI-2000, Vector Laboratories) and Hoechst (Thermo Fisher Scientific) for 30 minutes. Cells were imaged using Nikon MR confocal microscope. […]
Primary bone marrow derived macrophages (BMDMs) were treated with CNF1 for 6 hours to trigger Caspase-1 activation. […] Cells with dots of FAM-FLICA staining were determined as positive (data not shown). […] To this aim, BMDMs were transfected with a siRNA library targeting mouse NLRs and Caspase-1 activation was monitored as previously described. […]

E. coli expressing CNF1 = test: Mouse model of bacteremia with E. coli expressing CNF1; assay type: in vivo; conditions: BALB/c mice, 48 h after infection
Experimental: Data are expressed as the geometric mean±95 CI *p<0.05.
Mice were injected intravenously with 10^7 CFUs of E. coli as previously described^8. For the determination of bacteremia, blood was collected from the tail vein at the indicated times post-infection, serially diluted in sterile PBS and plated on LB plates containing streptomycin (200 μg/ml) and the plates were incubated for 16 h at 37° C. Injection quality was controlled by plating blood samples obtained from the mice at 5 min after injection. NLRP3 knock-out mice were kindly provided by V. Petrilli and have been previously described^21. Female NLRP3 KO and female congenic WT C57BL/6J littermate mice were injected intravenously with 10^7 CFUs of E. coli and the determination of bacteremia was monitored as previously described^8.
Mice were infected with the same strain and concentration of CNF1 expressing E. coli and the bacteremia was measured on each infected mouse at 0 h, 4 h, 24 h and 48 h.

SMILES | Total PASI score (cumulative score of scaling and erythema) [1] | Erythema score (PASI) [1] | Scaling score (PASI) [1] | Block of IL-1β maturation in macrophages treated with LPS and CNF1 (IL-1β maturation) | Block of CNF1-triggered Caspase-1 activity/activation measured using FAM-FLICA (Caspase-1 activation) | other results
CCS(=O)(=O)c1cc(Nc2ncc(F)c(N(C)c3cc(CO)c(C)cc3C)n2)ccc1N1C[C@@H]2C[C@H]1CN2C [AZ13711265] | 3.1 | 1.4 | 1.7 | – | – | –
CCn1c(=O)c(-c2ccc(-c3cncs3)cc2Cl)cc2cnc(Nc3ccc(N4CCN(C)CC4)cc3)nc21 [FRAX597] | – | – | – | sufficient to block | sufficient to block | –
Oc1ccc2ccccc2c1SSc1c(O)ccc2ccccc12 [IPA-3] | – | – | – | sufficient to block | sufficient to block | –
CC(C)(O)c1coc(S(=O)(=O)NC(=O)Nc2c3c(cc4c2CCC4)CCC3)c1 [MCC950] | – | – | – | – | sufficient to block | Animals found positive for bacteria (E. coli expressing CNF1; MCC950 50 mg/kg IP once a day, control group 0): 56%; Bacterial load compared to control group (E. coli expressing CNF1; MCC950 50 mg/kg IP): statistically significant higher
CO[C@@H]1C[C@@H](C[C@H]2CC[C@H](C)[C@H]([C@@H](C)C(=O)O)O2)O[C@]2(O[C@](C)([C@H]3CC[C@@](C)([C@@H]4O[C@@H]([C@H]5O[C@@](O)(CO)[C@H](C)C[C@@H]5C)C[C@@H]4C)O3)C[C@H]2C)[C@@H]1C [Nigericin] | – | – | – | – | – | FAM-FLICA positive cells (mean) (Caspase-1 activation; WT BMDMs (FIG. 1b), control condition 2.5%): 15.4%
CC(C)Cn1cnc2c(N)nc3ccccc3c21 [imiquimod] | 6.5 | 3 | 3.5 | – | – | –
